The values that follow come from patent publication US20250361241A1, “HPK1 INHIBITOR AND MEDICAL USE THEREOF” (Betta Pharmaceuticals Co., Ltd., priority 2022, published 2025).

The target of one experiment is HPK1 (Homo sapiens (Human), UniProt Q92918). Kind of experiment: HPK1 enzyme activity detection (1 mM ATP system), ADP-Glo with MBP substrate, Pharmacological Experiment 2. Type of experiment: biochemical. The procedure: (§1) Pharmacological Experiment 2: […] The test compound was serially diluted using DMSO to 200 times the detection concentration. […] Centrifuge at 1000×g for 30 seconds and incubate at 25° C. for 15 minutes. • (5) Adding ATP and substrate: Add 2 μL of 2×ATP-MBP solution to the 384-well plate and centrifuge at 1000×g for 30 seconds. Seal the plate with a sealing film and incubate at 25° C. for 60 minutes. • (6) Add ADP-Glo reagent: Add 4 μL ADP-Glo reagent (Promega, V9103) to the 384-well plate, centrifuge at 1000×g for 30 seconds, and incubate at 25° C. for 60 minutes. • (7) Detection of luminescent signal; Add 8 μL of luminescent detection reagent (Promega, V9103) to a 384-well plate, centrifuge at 1000×g for 30 seconds, and incubate at 25° C. for 60 minutes. The chemiluminescent signal was read using a BMG instrument. • (8) Calculation of percentage inhibition rate: […] See Table 2 for the enzymatic IC 50 data of the example compounds on HPK1.
HPK1, sequence (Q92918 whole entry, species assumed): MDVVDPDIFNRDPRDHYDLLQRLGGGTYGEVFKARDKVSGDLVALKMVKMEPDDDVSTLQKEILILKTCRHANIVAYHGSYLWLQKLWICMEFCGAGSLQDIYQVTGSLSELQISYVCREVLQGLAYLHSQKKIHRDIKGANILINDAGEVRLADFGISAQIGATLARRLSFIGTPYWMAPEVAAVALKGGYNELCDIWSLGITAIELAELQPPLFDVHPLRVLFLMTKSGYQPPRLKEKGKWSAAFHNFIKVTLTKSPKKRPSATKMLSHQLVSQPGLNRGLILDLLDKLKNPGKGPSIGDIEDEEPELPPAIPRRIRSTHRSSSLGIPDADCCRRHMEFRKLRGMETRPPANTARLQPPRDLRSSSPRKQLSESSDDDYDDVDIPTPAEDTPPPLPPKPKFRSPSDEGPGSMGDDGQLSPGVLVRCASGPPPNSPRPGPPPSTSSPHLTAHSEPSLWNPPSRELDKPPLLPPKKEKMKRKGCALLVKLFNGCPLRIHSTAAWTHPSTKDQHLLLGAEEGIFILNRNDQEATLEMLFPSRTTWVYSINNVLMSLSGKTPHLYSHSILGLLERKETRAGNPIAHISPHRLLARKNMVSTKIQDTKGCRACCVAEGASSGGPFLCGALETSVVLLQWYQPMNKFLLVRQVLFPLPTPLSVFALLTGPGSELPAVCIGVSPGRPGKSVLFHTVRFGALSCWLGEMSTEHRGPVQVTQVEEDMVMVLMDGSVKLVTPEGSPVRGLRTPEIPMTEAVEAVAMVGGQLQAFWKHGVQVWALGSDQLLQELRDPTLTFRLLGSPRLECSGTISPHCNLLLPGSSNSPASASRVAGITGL
The molecule “4-(8-FLUORO-7-METHYLIMIDAZO[1,2-A]PYRIDIN-3-YL)-7-((2,3,5,6,7′,8′-HEXAHYDRO-6′H-SPIRO[PYRAN-4, 5′-[1,7]NAPHTHYRIDINE]-2′-YL)AMINO)ISOINDOL-1-ONE [Compound 149]” registered an IC50 of 4.42 nM. On the same count and under the same terms, the figure for “7-((2,3,5,6,7′,8′-HEXAHYDRO-6′-H-PYRANO[4,5′-[1,7]NAPHTHYRIDINE]-2′-YL)AMINO)-4-(7-(TRIFLUOROMETHYL)IMIDAZO[1,2-A]PYRIDIN-3-YL)ISOINDOL-1-ONE [Compound 147]” is 22 nM.

Molecule `CN(C)C1CCC2(CCOCC2)c2ccc(Nc3ccc(-c4cnc5cc(F)ccn45)c4c3C(=O)NC4)nc21` (stereo not drawn) [Compound 3] showed an IC50 of 4.16 nM. On the same count and under the same terms, the value for `Cc1cc(Nc2ccc(-c3cnc4cc(F)ccn34)c3c2C(=O)NC3)nc2c1C1(CCOCC1)C[C@H]2N(C)C` [Compound 28, (R)-7-((7-(DIMETHYLAMINO)-4-METHYL-2′,3′,5′,6,6′,7-HEXAHYDROSPIRO[B]PYRIDIN-5,4′-PYRAN]-2-YL)AMINO)-4-(7-FLUOROIMIDAZO[1,2-A]PYRIDIN-3-YL)ISOINDOLIN-1-ONE] was 1.27 nM; that for `Cc1cc(Nc2ccc(-c3cnn4cc(F)ccc34)c3c2C(=O)NC3)nc2c1C1(CCOCC1)C[C@H]2N(C)C` [Compound 29] was 1.98 nM. Same read-out and setting: the figure for `Cc1cc(Nc2cnc(-c3ccnc4c3ccn4C)c3c2C(=O)NC3)nc2c1C1(CCOCC1)CC2N(C)C` (stereo not drawn) [Compound 30] is 4.22 nM. `CN(C)C1CCC2(CCOCC2)c2ccc(Nc3ccc(-c4cnc5cc(Cl)ccn45)c4c3C(=O)NC4)nc21` (stereo not drawn) [Compound 31] gave an IC50 of 4.53 nM. The same measure, in the same setting: the value for `CN(C)C1CCC2(CCOCC2)c2ccc(Nc3ccc(-c4cnn5cc(F)ccc45)c4c3C(=O)NC4)nc21` (stereo not drawn) [Compound 32] was 4.52 nM; that for `CN(C)C1CCC2(CCOCC2)c2ccc(Nc3ccc(-c4cnn5ccccc45)c4c3C(=O)NC4)nc21` (stereo not drawn) [Compound 33] was 4.76 nM. Take `CN(C)C1CCC2(CCOCC2)c2ccc(Nc3ccc(-c4cnn5cccnc45)c4c3C(=O)NC4)nc21` (stereo not drawn) [Compound 45]: the midpoint of inhibition, the IC50, lay at 3.08 nM. Molecule `O=C1NCc2c(-c3cnc4cc(F)ccn34)ccc(Nc3ccc4c(n3)C(N3CCC(F)(F)C3)CC43CCOCC3)c21` (stereo not drawn) [Compound 72, 7-((7-(3,3-DIFLUOROPYRROLIDIN-1-YL)-2′,3′,5′6,6′,7-HEXAHYDROSPIRO[B]PYRIDINE-5,4′-PYRAN]-2-YL)AMINO)-4-(7-FLUOROIMIDAZOLE[1,2-A]PYRIDIN-3-YL)ISOINDOL-1-ONE] displayed an IC50 of 143 nM. For the molecule `CC(=O)N1CCN(C2CC3(CCOCC3)c3ccc(Nc4ccc(-c5cnc6cc(F)ccn56)c5c4C(=O)NC5)nc32)CC1` (stereo not drawn) [Compound 92], the IC50 came to 75.2 nM.

For the molecule `CC1(O)CCN(C2CC3(CCOCC3)c3ccc(Nc4ccc(-c5cnc6cc(F)ccn56)c5c4C(=O)NC5)nc32)CC1` (stereo not drawn) [Compound 95], the IC50 came to 6.36 nM. Still for that read-out and setting: the figure for `CC1(C)CN(C2CC3(CCOCC3)c3ccc(Nc4ccc(-c5cnc6cc(F)ccn56)c5c4C(=O)NC5)nc32)CCO1` (stereo not drawn) [Compound 96] is 72.5 nM. Still for that read-out and setting: the value for `C[C@H]1CN(C2CC3(CCOCC3)c3ccc(Nc4ccc(-c5cnc6cc(F)ccn56)c5c4C(=O)NC5)nc32)CCO1` (stereo partly drawn) [Compound 97] was 7.5 nM; that for `O=C1NCc2c(-c3cnc4cc(F)ccn34)ccc(Nc3ccc4c(n3)C(N3CCNCC3)CC43CCOCC3)c21` (stereo not drawn) [Compound 99] was 171 nM; that for `CN1Cc2nc(Nc3ccc(-c4cnc5cc(F)ccn45)c4c3C(=O)NC4)ccc2C2(CCOCC2)C1` [Compound 100, 4-(7-FLUOROIMIDAZO[1,2-A]PYRIDIN-3-YL)-7-((7′-(METHYL-D3)-2,3,5,6,7′,8′-HEXAHYDRO-6′H-SPIRO[PYRAN-4,5′-[1,7]NAPHTHYRIDINE]-2′-YL)AMINO)ISOINDOL-1-ONE] was 3.1 nM. On the same count and under the same terms, the figure for `O=C1NCc2c(-c3cnc4cc(F)ccn34)ccc(Nc3ccc4c(n3)C(N3CCOC5(CC5)C3)CC43CCOCC3)c21` (stereo not drawn) [Compound 111] is 30.2 nM; for `C[C@@H]1CN(C2CC3(CCOCC3)c3ccc(Nc4ccc(-c5cnc6cc(F)ccn56)c5c4C(=O)NC5)nc32)C[C@@H](C)O1` (stereo partly drawn) [Compound 112] it is 48.7 nM. With `C[C@@H]1CN(C2CC3(CCOCC3)c3ccc(Nc4ccc(-c5cnc6cc(F)ccn56)c5c4C(=O)NC5)nc32)C[C@H](C)O1` (stereo partly drawn) [Compound 113], half-maximal inhibition (IC50) was put at 6.21 nM. The molecule `CN(CC(F)F)C1CC2(CCOCC2)c2ccc(Nc3ccc(-c4cnc5cc(F)ccn45)c4c3C(=O)NC4)nc21` (stereo not drawn) [Compound 114] returned an IC50 of 92.5 nM.

The molecule `O=C1NCc2c(-c3cnc4cc(F)ccn34)ccc(Nc3ccc4c(n3)C(N3CC5CCC(C3)O5)CC43CCOCC3)c21` (stereo not drawn) [Compound 116] returned a half-maximal inhibitory concentration (IC50) of 79.8 nM. `O=C1NCc2c(-c3cnc4cc(F)ccn34)ccc(Nc3ccc4c(n3)C(NCC(F)(F)F)CC43CCOCC3)c21` (stereo not drawn) [Compound 118] showed an IC50 of 71.1 nM. Same read-out and setting: the figure for `CC(C)CNC1CC2(CCOCC2)c2ccc(Nc3ccc(-c4cnc5cc(F)ccn45)c4c3C(=O)NC4)nc21` (stereo not drawn) [Compound 141] is 3.07 nM; for `CC(C)NC1CC2(CCOCC2)c2ccc(Nc3ccc(-c4cnc5cc(Cl)ccn45)c4c3C(=O)NC4)nc21` (stereo not drawn) [Compound 142] it is 4.52 nM. Regarding `O=C1NCc2c(-c3cnc4cc(F)ccn34)ccc(Nc3ccc4c(n3)C(N3C[C@H]5C[C@@H]3CO5)CC43CCOCC3)c21` (stereo partly drawn) [Compound 143], the midpoint of inhibition, the IC50, lay at 3.51 nM.

`CC(=O)N1Cc2nc(Nc3ccc(-c4cnc5cc(F)ccn45)c4c3C(=O)NC4)ccc2C2(CCCCC2)C1` [Compound 145] had an IC50 of 38.1 nM. The same measure, in the same setting: the figure for `COc1ccn2c(-c3ccc(Nc4ccc5c(n4)CCCC54CCOCC4)c4c3CNC4=O)cnc2c1` [Compound 148] is 21.8 nM; for `O=C1NCc2c(-c3cnc4cc(F)c(Cl)cn34)ccc(Nc3ccc4c(n3)CCCC43CCOCC3)c21` [Compound 150] it is 30.4 nM. The same measure, in the same setting: the value for `O=C1N=Cc2c(-c3cnc4cc(Cl)ccn34)ccc(Nc3ccc4c(n3)CNCC43CC3)c21` [Compound 152, 4-(7-CHLOROIMIDAZO[1,2-A]PYRIDIN-3-YL)-7-((7′,8′-DIHYDRO-6′H-SPIRO[CYCLOPROPANE-1,5′-[1,7]NAPHTHYRIDINE]-2′-YL)AMINO)ISOINDOL-1-ONE] was 14.4 nM; that for `C#CCN1Cc2nc(Nc3ccc(-c4cnc5cc(F)ccn45)c4c3C(=O)NC4)ccc2C2(CCOCC2)C1` [Compound 155] was 243 nM. On the same count and under the same terms, the value for `C#CCN1Cc2nc(Nc3ccc(-c4cnc5cc(F)ccn45)c4c3C(=O)NC4)ccc2C2(CCOCC2)C1` [Compound 156] was 38.7 nM. In turn, `CN(C)C1CC2(CCOCC2)c2ccc(Nc3ccc(-c4cnc5c(F)cccn45)c4c3C(=O)NC4)nc21` (stereo not drawn) [Compound 159] gave an IC50 of 5.41 nM. `CN(C)C1CC2(CCOCC2)c2ccc(Nc3ccc(-c4cnc5ccc(F)cn45)c4c3C(=O)NC4)nc21` (stereo not drawn) [Compound 162] displayed an IC50 of 18.6 nM. For `CC(C)c1ccn2c(-c3ccc(Nc4ccc5c(n4)C(N(C)C)CC54CCOCC4)c4c3CNC4=O)cnc2c1` (stereo not drawn) [Compound 163, 7-((7-(DIMETHYLAMINO)-2′,3′,5′,6,6′,7-HEXAHYDROSPIRO[CYCLOPENTANE[B]PYRIDINE-5,4′-PYRAN]-2-YL)AMINO)-4-(7-ISOPROPYLIMIDAZO[1,2-A]PYRIDIN-3-YL)ISOINDOL-1-ONE], the concentration for half-maximal inhibition (IC50) worked out at 25.3 nM. Regarding `CN(C)C1CC2(CCOCC2)c2ccc(Nc3ccc(-c4cnc5n4CCCC5)c4c3C(=O)NC4)nc21` (stereo not drawn) [Compound 166, 7-((7-(DIMETHYLAMINO)-2′,3′,5′,6,6′,7-HEXAHYDROSPIRO[CYCLOPENTANE[B]PYRIDINE-5,4′-PYRAN]-2-YL)AMINO)-4-(5,6,7,8-TETRAHYDROIMIDAZO[1,2-A]PYRIDIN-3-YL)ISOINDOL-1-ONE], the IC50 was determined as 25.7 nM.

Molecule `COc1ccn2c(-c3ccc(Nc4ccc5c(n4)C(N(C)C)CC54CCOCC4)c4c3CNC4=O)cnc2c1` (stereo not drawn) [Compound 170] yielded an IC50 of 6.88 nM.

Molecule `CN(C)C1CC2(CCOCC2)c2ccc(Nc3ccc(-c4cnc5cc(O)ccn45)c4c3C(=O)NC4)nc21` (stereo not drawn) [Compound 171] showed an IC50 of 35 nM. Same read-out and setting: the figure for `CN(C)C1CC2(CCOCC2)c2ccc(Nc3ccc(-c4cnc5cc(OC(F)(F)F)ccn45)c4c3C(=O)NC4)nc21` (stereo not drawn) [Compound 175] is 16.8 nM; for `O=C1NCc2c(-c3cnc4cc(OC(F)F)ccn34)ccc(Nc3ccc4c(n3)C(N3CCC(F)CC3)CC43CCOCC3)c21` (stereo not drawn) [Compound 176] it is 12.1 nM; for `O=C1NCc2c(-c3cnc4cc(OC(F)F)ccn34)ccc(Nc3ccc4c(n3)C(N3CCOCC3)CC43CCOCC3)c21` (stereo not drawn) [Compound 177, 4-(7-(DIFLUOROMETHOXY)IMIDAZO[1,2-A]PYRIDIN-3-YL)-7-((7-MORPHOLINE-2′,3′,5′,6,6′,7-HEXAHVDROSPIRO[B]PYRIDIN-54′-PYRAN]-2-YL)AMINO)ISOINDOL-1-ONE] it is 102 nM.

In another experiment the target is GLK (Homo sapiens (Human), UniProt Q8IVH8). Kind of experiment: GLK kinase assay (1 mM ATP system), ADP-Glo. The experiment is classed as biochemical. The procedure: as §1, with “Solution” for “Pharmacological Experiment 2:”, “Add” for “Adding”, “signal:” for “signal;”, “microplate reader.” for “instrument.”, “GLK kinase IC50” for “enzymatic IC 50”
GLK, sequence (Q8IVH8 whole entry, species assumed): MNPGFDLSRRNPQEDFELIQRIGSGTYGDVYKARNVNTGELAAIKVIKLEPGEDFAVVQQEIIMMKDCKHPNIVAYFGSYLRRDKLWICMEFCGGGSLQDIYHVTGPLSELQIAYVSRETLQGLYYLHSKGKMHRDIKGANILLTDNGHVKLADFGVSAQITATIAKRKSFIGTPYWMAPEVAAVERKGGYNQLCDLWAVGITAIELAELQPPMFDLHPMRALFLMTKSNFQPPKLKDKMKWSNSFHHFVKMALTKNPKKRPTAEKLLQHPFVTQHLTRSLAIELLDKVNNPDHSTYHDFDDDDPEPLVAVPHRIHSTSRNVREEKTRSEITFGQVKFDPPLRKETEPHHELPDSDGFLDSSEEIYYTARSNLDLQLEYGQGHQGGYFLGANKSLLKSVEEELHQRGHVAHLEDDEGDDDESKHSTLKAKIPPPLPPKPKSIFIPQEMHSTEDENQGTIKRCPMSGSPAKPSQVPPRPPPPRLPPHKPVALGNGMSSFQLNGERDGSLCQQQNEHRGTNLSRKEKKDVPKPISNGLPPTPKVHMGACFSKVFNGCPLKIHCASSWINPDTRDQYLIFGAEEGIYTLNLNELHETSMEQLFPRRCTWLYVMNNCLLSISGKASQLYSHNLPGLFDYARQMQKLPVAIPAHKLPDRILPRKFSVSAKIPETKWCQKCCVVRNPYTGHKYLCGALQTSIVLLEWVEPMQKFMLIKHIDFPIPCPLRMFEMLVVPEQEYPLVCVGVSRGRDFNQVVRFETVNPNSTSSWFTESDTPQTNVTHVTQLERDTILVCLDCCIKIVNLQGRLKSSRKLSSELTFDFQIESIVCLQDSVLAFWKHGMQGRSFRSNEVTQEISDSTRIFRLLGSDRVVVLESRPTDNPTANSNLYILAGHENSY
On to `CN(C)C1CCC2(CCOCC2)c2ccc(Nc3ccc(-c4cnc5cc(F)ccn45)c4c3C(=O)NC4)nc21` (stereo not drawn) [Compound 3], for which the IC50 was 2860 nM. On to `Cc1cc(Nc2ccc(-c3cnn4cc(F)ccc34)c3c2C(=O)NC3)nc2c1C1(CCOCC1)C[C@H]2N(C)C` [Compound 29], for which the half-inhibitory concentration (IC50) was 9.77 nM. On the same count and under the same terms, the figure for `CN(C)C1CCC2(CCOCC2)c2ccc(Nc3ccc(-c4cnn5cc(F)ccc45)c4c3C(=O)NC4)nc21` (stereo not drawn) [Compound 32] is 596 nM; for `CN(C)C1CCC2(CCOCC2)c2ccc(Nc3ccc(-c4cnn5ccccc45)c4c3C(=O)NC4)nc21` (stereo not drawn) [Compound 33] it is 631 nM.
